Measurements published in patent publication US8778643B2, “Methods for increasing lipid levels and producing triacylglycerols in algae” (priority 2012, dated 2014).
Structures can show the parent of a compound that is named as a salt. Where two headings read alike, the source gives them in different places.

Key:
[1] = system: Nannochloris sp.; test: Microplate assay: growth (absorbance 680 nm) and intracellular lipids (Nile Red fluorescence); format: cell-based; details: for Absorbance (percent increase) / Nile Red percent increase: 200 nM, initial microplate screen, relative to control
Protocol: Stock cultures were aerated by stirring with bubbling air (homemade manifold with Petco air pump, 2-4% CO2) or by orbital shaking (Thermo Scientific MAXQ 2000) at a constant speed of 150 rpm at 22±3° C. with a 16:8 hour light/dark cycle. Stocks were kept at stationary phase for use. Algae were prepared as dictated by culture center.
Compounds were selected based on reported biological activity in non-microalgae organisms. To ensure that compounds retained their quality, they were stored under advised conditions after purchasing from the manufacturer. Solutions of all assay compounds were prepared as 10 mM stock solutions by dissolving in DMSO in 2-dram amber vials and then stored in darkness −20° C. 96-well PCR plates were used to create a stock plate layout that was then transferred to the algae microplates. A plate map was used to distribute each compound to a well based on molecule name, collection number, and CAS number. For 20 μM and 200 nM assay plates, 10 mM compound stock in DMSO was diluted into plate maps of 5 mM and 50 μM assay stocks, respectively.
All materials for assay experiments were autoclaved before each use to maintain axenic algae cultures. Algae species were checked for homogeneity using a TS-100 light microscope (Nikon, Japan). […] Diluted stock solutions were made immediately prior to use for consistency and optimal plate growth. Cell density was measured on a Thermo Scientific Genesys 10S Vis Spectrophotometer (ThermoFisher, San Jose), using a 1 mL cuvette at 680 nm.
Plates were originally run in triplicate, before replicates were increased to quadruplicate, along with a separate control plate to compare growth. Due to extensive evaporation in exterior wells over time, our unique algae plate layout was designed to use the 60 interior wells out of 96 wells for the experiment. The 36 outer wells were filled with Millipore water and media to prevent evaporation and edge effects in the inner algae wells, as well as serve as blanks. The 60 wells with algae contained a total volume of 251 μL (100 μL of media+DMSO compound stock +150 μL dilute algae stock). For 20 μM and 200 nM assay plates, 10 mM compound stock in DMSO is diluted into plate maps of 5 mM and 50 μM assay stocks, respectively. […] Plates were parafilmed during growth to limit the amount of evaporation that can occur. Plates were numbered, and numerically ordered to ensure they got the same shaker space.
The shakers are kept at a constant shaking of 150 rpm. Ambient temperature is 22±3° C.

[2] = system: Nannochloropsis salina; details: for Nile Red Fluorescence % Increase: compounds tested at 20 μM, initial screening, p<0.05; for % Lipid increase based on Nile red fluorescence intensity: DMSO, t=day 0; for % Increase based on Nile Red Fluorescence Intensity: DMSO delivery, added t=day 0
[3] = system: Phaeodactylum tricornutum; test: Microplate assay: growth (absorbance 680 nm) and intracellular lipids (Nile Red fluorescence); format: cell-based; details: P. tricornutum; for % Inc: increase of lipid production
[4] = Nannochloris sp., compounds tested at 20 μM, initial screening, p<0.05
[5] = Nannochloris sp., compounds tested at 200 nM, initial screening, p<0.05

C=C1C[C@]23C[C@@]1(O)CC[C@H]2[C@@]12C=C[C@H](O)[C@@](C)(C(=O)O1)[C@H]2[C@@H]3C(=O)O [Giberellic acid, (3S,3aS,4S,4aS,6S,8aR,8bR,11S)-6,11-Dihydroxy-3-methyl-12-methylene-2-oxo-4a,6-ethano-3,8bprop-1-enoperhydroindeno[1,2-b]furan-4-ca]
Absorbance (percent increase) [1]: −1.1% | Nile Red percent increase [1]: 70.4%

CC(C)Cc1ccc(C(C)C(=O)O)cc1 (stereo not shown) [Ibuprofen]
Nile Red Fluorescence % Increase [1, 4]: 80.2% | Nile Red Fluorescence % Increase ([2]; N. salina): 59.0%

COc1ccc2c(c1)c(CC(=O)O)c(C)n2C(=O)c1ccc(Cl)cc1 [Indomethacin, 1-(4-Chlorobenzoyl)-5-methoxy-2-methyl-3-indoleacetic acid]
% Increase based on Nile Red Fluorescence Intensity ([1]; Nannochloris sp., 49 nM, dissolved in water, added t=day 0): 81% | Nile Red percent increase ([2]; 55 nM, dose-response microplate screen): 118% | % Lipid increase based on Nile red fluorescence intensity ([2]; N. salina, 123.5 nM): 61% | % Increase based on Nile Red Fluorescence Intensity ([2]; N. salina, 123.5 nM): 61%

O=C(Oc1ccc([N+](=O)[O-])cc1)N1CCC(C(O)(c2ccc3c(c2)OCO3)c2ccc3c(c2)OCO3)CC1 [JZL 184 hydrate, 4-nitrophenyl-4-[bis(1,3-benzodioxol-5-yl)(hydroxy)methyl]piperidine-1-carboxylate]
% change in abs ([2]; N. salina, 3.3 μM): −12.15% | % in NR fl ([2]; N. salina, 3.3 μM): 95.70% | % change in abs ([2]; N. salina, 10 μM): 13.75% | % in NR fl ([2]; N. salina, 10 μM): 86.72% | % change in abs ([2]; N. salina, 40 μM): 0.61% | % in NR fl ([2]; N. salina, 40 μM): 118.99% | % Lipid increase based on Nile red fluorescence intensity ([2]; N. salina, 40 μM): 119% | % Increase based on Nile Red Fluorescence Intensity ([2]; N. salina, 40 μM): 119%

CC/C=C\C[C@H]1C(=O)CC[C@@H]1CC(=O)O [Jasmonic acid, (1R,2R)-3-Oxo-2-(2Z)-2-pentenyl-cyclopentaneacetic acid]
Absorbance (percent increase) [1]: −7.6% | Nile Red percent increase [1]: 87.5% | Nile Red Fluorescence % Increase [1, 5]: 80.5%

O=C1Cc2c([nH]c3ccc(Br)cc23)-c2ccccc2N1 [Kenpaulllone]
Nile Red Fluorescence % Increase [1, 5]: 84.2%

O=C1Cc2c([nH]c3ccc(Br)cc23)-c2ccccc2N1 [Kenpaullone, 9-Bromo-7,12-dihydro-indolo[3,2-d][1]benzazepin-6(5H)-one]
Absorbance (percent increase) [1]: −8.1% | Nile Red percent increase [1]: 77.5% | Nile Red Fluorescence % Increase [1, 4]: 97.7% | Nile Red Fluorescence % Increase ([2]; N. salina): 34.8%

c1coc(CNc2ncnc3nc[nH]c23)c1 [Kinetin, N^6-furfuryladenine]
Nile Red Fluorescence % Increase ([3]; compounds tested at 200 nM, initial screening, p<0.05): 25.2% | % Inc ([3]; best conc. 39 nM): 76.29% | Absorbance (percent increase) [1]: −9.0% | Nile Red percent increase [1]: 72.4%

COc1ccc2[nH]cc(CCNC(C)=O)c2c1 [Melatonin, N-Acetyl-5-methoxytryptamine]
% Inc ([3]; best conc. 40 μM): 47.80%

CC/C=C\CC1C(=O)CCC1CC(=O)OC (stereo not shown) [Methyl jasmonate]
% Lipid increase based on Nile red fluorescence intensity ([2]; N. salina, 13 nM): 85% | % Increase based on Nile Red Fluorescence Intensity ([2]; N. salina, 13 nM): 85%

CCC(C)Nc1ccc(NC(C)CC)cc1 (stereo not shown) [N,N′-di-sec-butyl-p-phenylenediamine, 1-N,4-N-di(butan-2-yl)benzene-1,4-diamine]
% Inc ([3]; best conc. 156 nM): 39.51%

COc1ccc2cc([C@H](C)C(=O)O)ccc2c1 [Naproxen, (S)-(+)-2-(6-Methoxy-2-naphthyl)propionic acid]
% Inc ([2]; increase of lipid production, N. salina, best conc. 156 nM): 67.44%

CCCCCCCCCCCCCCCC(=O)C(F)(F)F [PTFK, 1,1,1-Trifluoro-2-heptadecanone]
% change in abs ([3]; 13 nM): 3.22% | % in NR fl ([3]; 13 nM): 70.44% | % change in abs ([3]; 41.2 nM): 5.05% | % in NR fl ([3]; 41.2 nM): 67.59%

O=c1c(O)c(-c2ccc(O)c(O)c2)oc2cc(O)cc(O)c12 [Quercetin, 2-(3,4-dihydroxyphenyl)-3,5,7-trihydroxy-4H-chromen-4-one]
Absorbance (percent increase) [1]: −1.6% | Nile Red percent increase [1]: 63.5%

CC[C@H](CO)Nc1nc(NCc2ccccc2)c2ncn(C(C)C)c2n1 [Roscovitine]
Nile Red Fluorescence % Increase [1]: 30.8%

Cc1ncc(C[n+]2csc(CCO)c2C)c(N)n1 [Thiamine, Aneurine hydrochloride, Vitamin B1 hydrochloride]
Absorbance (percent increase) [1]: −12.1% | Nile Red percent increase [1]: 122.6%

Indole acetic acid
Nile Red Fluorescence % Increase [1]: 95.4%
